Source: PubChem BioAssay (NCI)
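Compound exposure: 48 hours, 5 concentrations, 96-well plates. TGI marks complete inhibition of growth.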

These molecules were tested on HCT-15 colon (assay: DTP human tumour cell line panel, 48 h).
`CC(N)/C(N)=N/O` (stereo unspecified) was tested, and the TGI was greater than 100 µM.
`CON(C)C(=O)C(C)N(Cc1ccccc1)Cc1ccccc1` (stereo unspecified) showed a TGI greater than 100 µM.
Molecule `CCOC(=O)c1ccc(-c2cc(C)no2)[nH]1` has a TGI greater than 100 µM.
`COc1cccc(-c2cc(=O)c3cc(N4CCCCC4)ccc3[nH]2)c1` was tested, and the TGI was greater than 100 µM.

The molecules below were run on HCC-2998 colon (assay: DTP human tumour cell line panel, 48 h).
With `O=c1cc(-c2ccc3c(c2)OCO3)[nH]c2cc3c(cc12)OCO3` the TGI was greater than 100 µM.
`COC(=O)CC(C)(NS(=O)c1ccc(C)cc1)c1ccccc1` (stereo unspecified) was tested, and the TGI was greater than 100 µM.
Molecule `C=C1c2nc3ccccc3n2C=C(c2ccc(OC)cc2)N1c1ccc(OC)cc1` has a TGI greater than 100 µM.
With `N#CSC#CCCC#CSC#N` the TGI was 34.3 µM.
For `O=C(O)C1C2c3ccccc3C(c3ccccc32)C1C(=O)NCC1CC1` (stereo unspecified), the TGI was 55.1 µM.
`CCOC(=O)/C(=C/c1ccc(OC)cc1)N(CC)CC` was tested, and the TGI was greater than 100 µM.
Work on `O=c1c(F)cn(Cc2c(Cl)cccc2Cl)c(=O)n1Cc1c(Cl)cccc1Cl` yielded a TGI greater than 31.6 µM.
`Cc1ccc(Nc2nc(NNC(=O)Cc3ccccc3)nc(NNC(=O)c3ccncc3)n2)cc1` showed a TGI greater than 10 µM.
Molecule `Cc1ccc2nc(-c3ccccc3)cc(=O)n2c1` has a TGI greater than 100 µM.
`Cc1cn(C2OC(CO[Si](C)(C)C(C)(C)C)C(N(C)O[Si](C)(C)C(C)(C)C)C2[Se]c2ccccc2)c(=O)[nH]c1=O` (stereo unspecified) showed a TGI of 0.491 µM.
For `CNC(=O)NCCCC(NC(C)=O)C(=O)NCc1ccccc1` (stereo unspecified), the TGI was greater than 100 µM.
Molecule `O=[N+]([O-])c1ccc2nc(Nc3ccccc3)c(Nc3ccccc3)nc2c1` has a TGI of 2.65 µM.
In the case of `NC(Cc1ccccc1)C(=O)NC(Cc1ccccc1)NC(=O)C(Cc1c[nH]c2ccccc12)C(=O)O` (stereo unspecified), the TGI is reported as greater than 100 µM.
`O=S(=O)(O)c1cc(N=Nc2c(O)ccc3ccccc23)cc2c(S(=O)(=O)O)cccc12` was tested, and the TGI was greater than 100 µM.
`Cc1ccc(S(=O)(=O)N2C3C=CC(C3)[C@@H]2C(Cl)(Cl)Cl)cc1` (stereo partly specified) showed a TGI of 48.7 µM.
With `COC(=O)c1ccc(Cc2cc(Cc3ccc(C(=O)OC)cc3)cc(Cc3ccc(C(=O)OC)cc3)c2)cc1` the TGI was greater than 25 µM.
For `C[C@]12[C@@H]3CC[C@H]1[C@@H](O)C(=O)N2CC3`, the TGI was greater than 100 µM.
Work on `O=C(C(=O)n1ccc2ccccc21)n1ccc2ccccc21` yielded a TGI greater than 100 µM.
`CC(N)/C(N)=N/O` (stereo unspecified) showed a TGI greater than 100 µM.
`CON(C)C(=O)C(C)N(Cc1ccccc1)Cc1ccccc1` (stereo unspecified) showed a TGI greater than 100 µM.

What follows are molecules tested on MOLT-4 leukemia (assay: DTP human tumour cell line panel, 48 h).
`O=c1cc(-c2ccc3c(c2)OCO3)[nH]c2cc3c(cc12)OCO3` was tested, and the TGI was greater than 100 µM.
Work on `COC(=O)CC(C)(NS(=O)c1ccc(C)cc1)c1ccccc1` (stereo unspecified) yielded a TGI greater than 100 µM.
For `C=C1c2nc3ccccc3n2C=C(c2ccc(OC)cc2)N1c1ccc(OC)cc1`, the TGI was greater than 100 µM.
`N#CSC#CCCC#CSC#N` gave a TGI of 6.92 µM.
In the case of `O=C(O)C1C2c3ccccc3C(c3ccccc32)C1C(=O)NCC1CC1` (stereo unspecified), the TGI is reported as greater than 100 µM.
`CCOC(=O)/C(=C/c1ccc(OC)cc1)N(CC)CC` showed a TGI greater than 100 µM.
With `O=c1c(F)cn(Cc2c(Cl)cccc2Cl)c(=O)n1Cc1c(Cl)cccc1Cl` the TGI was greater than 31.6 µM.
Molecule `Cc1ccc(Nc2nc(NNC(=O)Cc3ccccc3)nc(NNC(=O)c3ccncc3)n2)cc1` has a TGI greater than 10 µM.
For `Cc1ccc2nc(-c3ccccc3)cc(=O)n2c1`, the TGI was greater than 100 µM.
Work on `Cc1cn(C2OC(CO[Si](C)(C)C(C)(C)C)C(N(C)O[Si](C)(C)C(C)(C)C)C2[Se]c2ccccc2)c(=O)[nH]c1=O` (stereo unspecified) yielded a TGI greater than 100 µM.
With `CNC(=O)NCCCC(NC(C)=O)C(=O)NCc1ccccc1` (stereo unspecified) the TGI was greater than 100 µM.
Molecule `O=[N+]([O-])c1ccc2nc(Nc3ccccc3)c(Nc3ccccc3)nc2c1` has a TGI greater than 100 µM.
`COc1cc(S(=O)(=O)Nc2ccc(-c3csc(N4C(=O)CSC4c4cccc(Oc5ccccc5)c4)n3)cc2)ccc1Cl` (stereo unspecified) gave a TGI greater than 100 µM.
With `O=S(=O)(O)c1cc(N=Nc2c(O)ccc3ccccc23)cc2c(S(=O)(=O)O)cccc12` the TGI was greater than 100 µM.
For `Cc1ccc(S(=O)(=O)N2C3C=CC(C3)[C@@H]2C(Cl)(Cl)Cl)cc1` (stereo partly specified), the TGI was 75 µM.
Work on `COC(=O)c1ccc(Cc2cc(Cc3ccc(C(=O)OC)cc3)cc(Cc3ccc(C(=O)OC)cc3)c2)cc1` yielded a TGI greater than 25 µM.
With `C[C@]12[C@@H]3CC[C@H]1[C@@H](O)C(=O)N2CC3` the TGI was greater than 100 µM.
In the case of `O=C(C(=O)n1ccc2ccccc21)n1ccc2ccccc21`, the TGI is reported as greater than 100 µM.
`CON(C)C(=O)C(C)N(Cc1ccccc1)Cc1ccccc1` (stereo unspecified) gave a TGI greater than 100 µM.
`CCOC(=O)c1ccc(-c2cc(C)no2)[nH]1` showed a TGI greater than 100 µM.
For `COc1cccc(-c2cc(=O)c3cc(N4CCCCC4)ccc3[nH]2)c1`, the TGI was greater than 100 µM.

These molecules were tested on HOP-92 NSCLC (assay: DTP human tumour cell line panel, 48 h).
`O=c1cc(-c2ccc3c(c2)OCO3)[nH]c2cc3c(cc12)OCO3` was tested, and the TGI was greater than 100 µM.
`COC(=O)CC(C)(NS(=O)c1ccc(C)cc1)c1ccccc1` (stereo unspecified) showed a TGI greater than 100 µM.
`C=C1c2nc3ccccc3n2C=C(c2ccc(OC)cc2)N1c1ccc(OC)cc1` showed a TGI of 85.5 µM.
Molecule `N#CSC#CCCC#CSC#N` has a TGI of 39.5 µM.
Work on `O=C(O)C1C2c3ccccc3C(c3ccccc32)C1C(=O)NCC1CC1` (stereo unspecified) yielded a TGI greater than 100 µM.
For `CCOC(=O)/C(=C/c1ccc(OC)cc1)N(CC)CC`, the TGI was greater than 100 µM.
`O=c1c(F)cn(Cc2c(Cl)cccc2Cl)c(=O)n1Cc1c(Cl)cccc1Cl` was tested, and the TGI was greater than 31.6 µM.
`Cc1ccc(Nc2nc(NNC(=O)Cc3ccccc3)nc(NNC(=O)c3ccncc3)n2)cc1` showed a TGI greater than 10 µM.
Molecule `Cc1ccc2nc(-c3ccccc3)cc(=O)n2c1` has a TGI greater than 100 µM.
In the case of `Cc1cn(C2OC(CO[Si](C)(C)C(C)(C)C)C(N(C)O[Si](C)(C)C(C)(C)C)C2[Se]c2ccccc2)c(=O)[nH]c1=O` (stereo unspecified), the TGI is reported as 10.9 µM.
In the case of `CNC(=O)NCCCC(NC(C)=O)C(=O)NCc1ccccc1` (stereo unspecified), the TGI is reported as greater than 100 µM.
For `O=[N+]([O-])c1ccc2nc(Nc3ccccc3)c(Nc3ccccc3)nc2c1`, the TGI was 4.88 µM.
Work on `NC(Cc1ccccc1)C(=O)NC(Cc1ccccc1)NC(=O)C(Cc1c[nH]c2ccccc12)C(=O)O` (stereo unspecified) yielded a TGI greater than 100 µM.
With `COc1cc(S(=O)(=O)Nc2ccc(-c3csc(N4C(=O)CSC4c4cccc(Oc5ccccc5)c4)n3)cc2)ccc1Cl` (stereo unspecified) the TGI was greater than 100 µM.
`O=S(=O)(O)c1cc(N=Nc2c(O)ccc3ccccc23)cc2c(S(=O)(=O)O)cccc12` showed a TGI greater than 100 µM.
For `Cc1ccc(S(=O)(=O)N2C3C=CC(C3)[C@@H]2C(Cl)(Cl)Cl)cc1` (stereo partly specified), the TGI was 38.1 µM.
With `COC(=O)c1ccc(Cc2cc(Cc3ccc(C(=O)OC)cc3)cc(Cc3ccc(C(=O)OC)cc3)c2)cc1` the TGI was greater than 25 µM.
`C[C@]12[C@@H]3CC[C@H]1[C@@H](O)C(=O)N2CC3` showed a TGI greater than 100 µM.
Molecule `O=C(C(=O)n1ccc2ccccc21)n1ccc2ccccc21` has a TGI greater than 100 µM.
With `CC(N)/C(N)=N/O` (stereo unspecified) the TGI was greater than 100 µM.
Molecule `CON(C)C(=O)C(C)N(Cc1ccccc1)Cc1ccccc1` (stereo unspecified) has a TGI greater than 100 µM.
Molecule `CCOC(=O)c1ccc(-c2cc(C)no2)[nH]1` has a TGI greater than 100 µM.
For `COc1cccc(-c2cc(=O)c3cc(N4CCCCC4)ccc3[nH]2)c1`, the TGI was greater than 100 µM.

Each molecule was assayed on SNB-75 CNS (assay: DTP human tumour cell line panel, 48 h).
`O=c1cc(-c2ccc3c(c2)OCO3)[nH]c2cc3c(cc12)OCO3` gave a TGI of 13.7 µM.
For `C=C1c2nc3ccccc3n2C=C(c2ccc(OC)cc2)N1c1ccc(OC)cc1`, the TGI was 30.6 µM.
`O=C(O)C1C2c3ccccc3C(c3ccccc32)C1C(=O)NCC1CC1` (stereo unspecified) was tested, and the TGI was greater than 100 µM.
`O=c1c(F)cn(Cc2c(Cl)cccc2Cl)c(=O)n1Cc1c(Cl)cccc1Cl` showed a TGI greater than 31.6 µM.
With `Cc1ccc(Nc2nc(NNC(=O)Cc3ccccc3)nc(NNC(=O)c3ccncc3)n2)cc1` the TGI was greater than 10 µM.
In the case of `Cc1ccc2nc(-c3ccccc3)cc(=O)n2c1`, the TGI is reported as greater than 100 µM.
With `Cc1cn(C2OC(CO[Si](C)(C)C(C)(C)C)C(N(C)O[Si](C)(C)C(C)(C)C)C2[Se]c2ccccc2)c(=O)[nH]c1=O` (stereo unspecified) the TGI was 21.4 µM.
With `CNC(=O)NCCCC(NC(C)=O)C(=O)NCc1ccccc1` (stereo unspecified) the TGI was greater than 100 µM.
For `O=[N+]([O-])c1ccc2nc(Nc3ccccc3)c(Nc3ccccc3)nc2c1`, the TGI was 5.25 µM.
In the case of `NC(Cc1ccccc1)C(=O)NC(Cc1ccccc1)NC(=O)C(Cc1c[nH]c2ccccc12)C(=O)O` (stereo unspecified), the TGI is reported as greater than 100 µM.
Molecule `COc1cc(S(=O)(=O)Nc2ccc(-c3csc(N4C(=O)CSC4c4cccc(Oc5ccccc5)c4)n3)cc2)ccc1Cl` (stereo unspecified) has a TGI greater than 100 µM.
Molecule `O=S(=O)(O)c1cc(N=Nc2c(O)ccc3ccccc23)cc2c(S(=O)(=O)O)cccc12` has a TGI greater than 100 µM.
`Cc1ccc(S(=O)(=O)N2C3C=CC(C3)[C@@H]2C(Cl)(Cl)Cl)cc1` (stereo partly specified) showed a TGI of 51.2 µM.
For `COC(=O)c1ccc(Cc2cc(Cc3ccc(C(=O)OC)cc3)cc(Cc3ccc(C(=O)OC)cc3)c2)cc1`, the TGI was greater than 25 µM.
In the case of `C[C@]12[C@@H]3CC[C@H]1[C@@H](O)C(=O)N2CC3`, the TGI is reported as greater than 100 µM.
`O=C(C(=O)n1ccc2ccccc21)n1ccc2ccccc21` showed a TGI of 56 µM.
Molecule `CC(N)/C(N)=N/O` (stereo unspecified) has a TGI greater than 100 µM.
For `CON(C)C(=O)C(C)N(Cc1ccccc1)Cc1ccccc1` (stereo unspecified), the TGI was greater than 100 µM.
